According to PMC9029893 (International Journal of Molecular Sciences, 2022):

Legend:
antithrombin III (AT) = antithrombin III (AT) (Homo sapiens, UniProt P01008); assay: Activity of antithrombin III (AT); type: biochemical
Procedure: The activity of AT in human plasma was estimated spectrophotometrically using a diagnostic laboratory method. […] In the control samples, 10 μL of distilled water and methanol (1:1) was used. The reaction was initiated by the addition of a chromogenic substrate dissolved in water for injection; as a result, p-nitroaniline was released proportionally to the level of AT. The evaluation of AT level was performed on the basis of a calibration curve performed on calibrator diluted in the range 1:30–1:120 (λ = 405 nm) by the coagulometer program (CoagChrom-3003 Bio Ksel, Grudziadz, Poland). The coefficient of variability for the method (CV) was 2.69%, and the reference range was 80%–130%.

HUVEC cells = assay: HUVEC migration, wound-healing assay (JuLI Stage); type: cell-based, human
Procedure: The effects of compounds 1–5 on HUVEC migration were determined using the JuLI™ Stage system (NanoEntek, Seoul, Korea): a real-time cell history recorder allowing for live cell imaging and analysis. The procedure for the migration experiments has been published elsewhere in more detail. Concisely, HUVECs were seeded at a density of 10,000 cells per well on 96-well plates and incubated at standard conditions for 24 h. Following this, a wound was made with a scratcher (NanoEntek, Seoul, Korea). The cells were then rinsed with 100 μL of fresh EGM2 medium, and treated with biguanides 1–5 at the concentrations of 0.3 and 1.0 mM. The cells were incubated and monitored continuously every 10 min for 36 h at 37 °C, 5% CO2. Analysis of obtained images of cell migration, and measurements of the width of the scratch area were performed using dedicated software (NanoEntek, Seoul, Korea). The results were presented as mean ± SD, n = 4–8. The CV for the method was estimated as 14.2–24.4%, depending on the time point (n = 8).

[1] = test system: human plasma (platelet poor plasma); assay: Basic coagulation tests: PT, INR, APTT, TT; type: biochemical; conditions: for TT: thrombin 3.0 UNIH/mL
Procedure: The blood was collected into vacuum tubes stuffed with 3.2% buffered sodium citrate. Platelet poor plasma (PPP) was obtained by centrifugation at 3000× g for 10 min at room temperature using a Micro 22R centrifuge (Hettich Zentrifugen, Tuttlingen, Germany). The obtained PPP was stored in small aliquots for up to one month at –30° C. Before each experiment, PPP was restored at 37 °C for 15 min. Once thawed, the PPP was not frozen again nor used for retesting.
The effects of biguanidines (1–5) on the basic coagulation parameters (PT, INR, APTT, and TT) were carried out using a CoagChrom-3003 coagulometer (Bio-Ksel, Grudziądz, Poland), according to the routine laboratory diagnostic procedure. The studies were performed in multiplicate (n = 4–7). The control samples containing distilled water and methanol (1:1) were also included.
The results are presented as mean ± standard deviation (SD). The methods were validated, and coefficients of variability for all experiments were calculated (PT: CV = 10.25%, APTT: CV = 8.55%, TT: CV = 4.87%). The reference values for each test are as follows: PT: 9.7–14.6 s; APTT: 26.7–40.0 s; TT: 14.0–18.0 s for 3.0 UNIH/mL of thrombin.

Sequence of antithrombin III (AT) (P01008 33-464): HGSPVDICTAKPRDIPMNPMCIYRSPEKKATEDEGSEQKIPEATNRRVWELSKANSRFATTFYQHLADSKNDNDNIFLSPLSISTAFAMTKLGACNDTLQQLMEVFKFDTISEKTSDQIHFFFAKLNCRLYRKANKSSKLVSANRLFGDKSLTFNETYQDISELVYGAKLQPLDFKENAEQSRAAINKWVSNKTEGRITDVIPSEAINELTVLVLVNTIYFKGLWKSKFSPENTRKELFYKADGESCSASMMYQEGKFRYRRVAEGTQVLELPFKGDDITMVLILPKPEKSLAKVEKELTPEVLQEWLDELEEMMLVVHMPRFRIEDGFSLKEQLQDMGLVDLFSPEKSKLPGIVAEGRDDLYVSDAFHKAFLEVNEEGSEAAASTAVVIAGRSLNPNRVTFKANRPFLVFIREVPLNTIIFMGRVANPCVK

Structure (SMILES)	activity of AT III (antithrombin III (AT); 0.06 mM) [%]	activity of AT III (antithrombin III (AT); 0.3 mM) [%]	activity of AT III (antithrombin III (AT); 0.6 mM) [%]	activity of AT III (antithrombin III (AT); 1.5 mM) [%]	wound width (HUVEC cells; 0.3 mM, 6 hours) [µm]	wound width (HUVEC cells; 0.3 mM, 12 hours) [µm]	wound width (HUVEC cells; 0.3 mM, 18 hours) [µm]	wound width (HUVEC cells; 0.3 mM, 24 hours) [µm]	wound width (HUVEC cells; 0.3 mM, Start) [µm]	wound width (HUVEC cells; 1.0 mM, 6 hours) [µm]	wound width (HUVEC cells; 1.0 mM, 12 hours) [µm]	wound width (HUVEC cells; 1.0 mM, 18 hours) [µm]	wound width (HUVEC cells; 1.0 mM, 24 hours) [µm]	wound width (HUVEC cells; 1.0 mM, Start) [µm]	APTT ([1]; 0.006 mM) [s]	INR ([1]; 0.006 mM)	PT ([1]; 0.006 mM) [s]	TT ([1]; 0.006 mM) [s]	APTT ([1]; 0.06 mM) [s]	INR ([1]; 0.06 mM)	other results
CCCCS(=O)(=O)NC(N)=NC(=N)N(C)C [Compound 1]	110.25 ± 8.34	115.25 ± 6.18	120.00 ± 2.71	123.00 ± 5.2	491.9 ± 31.7	421.2 ± 5.9	365.2 ± 35.8	336.7 ± 39.0	605.8 ± 38.63	461.9 ± 33.4	375.1 ± 29.9	344.4 ± 32.8	337.5 ± 47.3	589.1 ± 36.3	35.12 ± 4.75	1.04 ± 0.19	13.04 ± 2.41	14.03 ± 0.94	33.36 ± 1.78	1.11 ± 0.23	PT ([1]; 0.06 mM): 12.78 ± 1.86 s; TT ([1]; 0.06 mM): 12.98 ± 1.08 s; APTT ([1]; 0.3 mM): 33.76 ± 2.53 s; INR ([1]; 0.3 mM): 1.08 ± 0.22; PT ([1]; 0.3 mM): 13.46 ± 2.71 s; TT ([1]; 0.3 mM): 13.90 ± 1.24 s; APTT ([1]; 0.6 mM): 34.68 ± 3.31 s; INR ([1]; 0.6 mM): 1.05 ± 0.19; PT ([1]; 0.6 mM): 13.08 ± 2.36 s; TT ([1]; 0.6 mM): 12.64 ± 1.31 s; APTT ([1]; 1.5 mM): 34.68 ± 5.21 s; INR ([1]; 1.5 mM): 1.08 ± 0.23; PT ([1]; 1.5 mM): 13.48 ± 2.93 s; TT ([1]; 1.5 mM): 13.03 ± 0.86 s
CCCCCCCCS(=O)(=O)NC(N)=NC(=N)N(C)C [Compound 2]	121.00 ± 4.90	127.75 ± 10.44	125.75 ± 10.87	129.00 ± 11.46	493.8 ± 133.1	442.4 ± 142.9	351.4 ± 82.6	328.6 ± 56.9	637.4 ± 116.3	590.8 ± 40.2	541.5 ± 99.2	453.1 ± 106.1	357.2 ± 68.1	712.4 ± 56.5	30.79 ± 5.87	1.07 ± 0.15	13.30 ± 1.81	14.14 ± 0.59	31.33 ± 5.53	1.03 ± 0.10	PT ([1]; 0.06 mM): 12.82 ± 1.33 s; TT ([1]; 0.06 mM): 13.86 ± 0.80 s; APTT ([1]; 0.3 mM): 33.49 ± 4.85 s; INR ([1]; 0.3 mM): 1.05 ± 0.11; PT ([1]; 0.3 mM): 13.10 ± 1.37 s; TT ([1]; 0.3 mM): 13.48 ± 2.10 s; APTT ([1]; 0.6 mM): 33.46 ± 5.59 s; INR ([1]; 0.6 mM): 1.04 ± 0.11; PT ([1]; 0.6 mM): 12.96 ± 1.42 s; TT ([1]; 0.6 mM): 14.40 ± 2.35 s; APTT ([1]; 1.5 mM): 34.83 ± 6.22 s; INR ([1]; 1.5 mM): 1.06 ± 0.10; PT ([1]; 1.5 mM): 13.20 ± 1.23 s; TT ([1]; 1.5 mM): 16.32 ± 2.21 s
CN(C)C(=N)N=C(N)NS(=O)(=O)C1CCCCC1 [Compound 3]	113.00 ± 10.13	117.25 ± 5.50	131.75 ± 6.65	136.75 ± 11.32	606.7 ± 149.4	486.0 ± 131.2	441.9 ± 99.5	395.9 ± 104.7	675.1 ± 94.6	494.6 ± 106.9	414.1 ± 103.5	385.2 ± 94.5	331.3 ± 62.5	609.3 ± 73.0	32.97 ± 5.06	1.00 ± 0.11	12.52 ± 1.42	13.18 ± 1.97	34.50 ± 4.52	1.04 ± 0.15	PT ([1]; 0.06 mM): 13.02 ± 1.90 s; TT ([1]; 0.06 mM): 13.14 ± 2.01 s; APTT ([1]; 0.3 mM): 33.00 ± 5.70 s; INR ([1]; 0.3 mM): 1.09 ± 0.11; PT ([1]; 0.3 mM): 13.60 ± 1.39 s; TT ([1]; 0.3 mM): 13.46 ± 1.97 s; APTT ([1]; 0.6 mM): 33.17 ± 5.34 s; INR ([1]; 0.6 mM): 1.09 ± 0.18; PT ([1]; 0.6 mM): 13.66 ± 2.27 s; TT ([1]; 0.6 mM): 13.50 ± 1.74 s; APTT ([1]; 1.5 mM): 32.49 ± 7.50 s; INR ([1]; 1.5 mM): 1.06 ± 0.18; PT ([1]; 1.5 mM): 13.30 ± 2.30 s; TT ([1]; 1.5 mM): 14.06 ± 1.60 s
